# Assays:
# [1] = system: rash caused by small molecule EGFR inhibitors; test: Prevention of rash caused by small molecule EGFR inhibitors, topical ointment, rat model; type: in vivo, SD rats
# Description: An Experiment to Verify the Prevention of Rash Caused by Small Molecule EGFR Inhibitors with Topical Administration of Compounds of the Present Application on a Rat Animal Model A rat animal model was established. After daily gavage of a small molecule EGFR inhibitor to female SD rats for […], the rats developed extensive rashes on their backs several days later (picture shown in FIG. 1). […] Similar to humans, rats developed skin rashes on their faces and bodies after oral administration of small molecule EGFR inhibitors. Both of them had the same etiology and very similar symptoms. Therefore, rats are a proper animal model for mimicking EGFR inhibitor-induced rash. After the SD rats were fed and adapted for one week (about 200 g), the rats were divided into 10 rats per group. The hair on the back of rats was gently removed with an electric razor one day before the experiment, and then an intragastric administration test was carried out. EGFR inhibitors were dissolved in a sterile aqueous solution, and diluted with PBS buffer; the amount of each gavage was not more than 2 mL, and the dosage was shown in Table 1. The experiment comprised the administration group and the control group. After intragastric administration, apply the ointment (type and concentration are shown in Table 1) of the compound used in the present application to the backs (about 3 cm*3 cm) of rats in the administration group; apply blank matrix ointment (about 0.5 g) to the backs (about 3 cm*3 cm) of rats in the control group; fix the rats with a fixed cylinder for about 4 hours after drug application, release the rats after 4 hours, wipe off the residual drug at the application site with clean water, and put them back into the cage. The frequency of intragastric administration of EGFR inhibitors is shown in Table 1, but the compounds of the present application and blank matrix ointment are applied only once a day. The intragastric administration and application test were repeated daily until an obvious rash appeared in the control group. […] Table 1 lists the animal experiment combination of various small molecule EGFR inhibitors and the compound ointment of the present application, as well as the corresponding experiment results (wherein, the value in the control rate column=the number of rats whose rash is milder in the administration group than that in the control group/the total number of rats in the administration group×100%).
# [2] = system: rash caused by monoclonal EGFR inhibitors; test: Treatment of rash caused by monoclonal EGFR inhibitors, topical ointment, rat model; type: in vivo; conditions: SD rats
# Method: An Experiment to Verify the Treatment of Rash Caused by Monoclonal EGFR Inhibitors with Topical Administration of Compounds of the Present Application on a Rat Animal Model After the SD rats were fed and adapted for one week (about 200 g), the rats were divided into 10 rats per group. The hair on the back of rats was gently removed with an electric razor one day before the experiment, and then an administration test was carried out. The EGFR monoclonal antibody solution diluted with normal saline was injected via tail vein twice a week, and the injection rate and time were shown in Table 4; the treatment experiment was started at the time point when rats developed a rash after continuous administration for 1-2 weeks. The experiments were divided into the administration group with the compound of the present application and the control group. During the treatment experiment, monoclonal antibody EGFR inhibitors were injected twice a week. the administration group applied the compound ointment of the present application on the back (about 3 cm*3 cm) of rats every day, and the control group applied blank matrix ointment on the back (about 3 cm*3 cm); after application, the rats were fixed with a fixed cyclinder for about 4 hours, and then the rats were released, with the residual drug at the application site wiped off with clean water, and put back into the cage. […] Table 4 lists the animal experiment combinations of monoclonal antibody EGFR inhibitors and the compound ointment of the present application, as well as the corresponding experiment results (wherein, the value in the control rate column=the number of rats whose rash is milder in the administration group than that in the control group/the total number of rats in the administration group×100%).
# [3] = Plasma stability, mini pig plasma; type: in vitro ADME, Mini Pigs; conditions: 37° C.
# Method: (§1) In addition, the plasma stability of these compounds was determined. Briefly, the determination method comprises the following steps: • 1) Thaw the frozen mixed plasma in a 37° C. water bath before testing, and then centrifuge at 4000 rpm for 5 min to remove blood clots; • 2) Add 98 μL blank plasma into each well of the 96-well reaction plate; • 3) In addition to the blank samples, add 2 μL of 100 μM working solution of test compound into each well; • 3) Incubate the reaction plate at 37° C. and start timing. Incubation times were 0, 10, 30, 60 and 120 minutes, respectively, with two replicate wells at each time point; • 4) Terminate the incubation at the corresponding time point, and add 400 μL of acetonitrile solution containing 200 ng/mL tolbutamide and 200 ng/mL labetalol to precipitate proteins; • 5) Shake each plate for 20 minutes, then centrifuge at 4000 rpm for 20 minutes, transfer 50 μL of supernatant to another 96-well plate, and dilute each sample with 100 μL of pure water; • 6) Analyze the sample by LC-MS/MS.
# [4] = Plasma stability, human plasma; type: in vitro ADME, Humans; conditions: 37° C.
# Method: as §1
# The experiment results are as follows, and it can be seen from the test results that the selected compounds are easily metabolized to the target compound in human plasma.
# [5] = system: rash caused by monoclonal EGFR inhibitors; test: Prevention of rash caused by monoclonal EGFR inhibitors, topical ointment, rat model; type: in vivo, SD rats
# Method: An Experiment to Verify the Prevention of Rash Caused by Monoclonal EGFR Inhibitors with Topical Administration of Compounds of the Present Application on a Rat Animal Model After the SD rats were fed and adapted for one week (about 200 g), the rats were divided into 10 rats per group. The hair on the back of rats was gently removed with an electric razor one day before the experiment, and then an administration test was carried out. The experiments were divided into the administration group with the compound of the present application and the control group. The EGFR monoclonal antibody solution diluted with normal saline was injected via the tail vein twice a week, and the injection rate and time are shown in Table 2. After injection, the administration group applied the compound ointment of the present application on the backs (about 3 cm*3 cm) of rats every day, and the control group applied blank matrix ointment (about 0.5 g) to the backs (about 3 cm*3 cm) of rats every day. After drug application, the rats were fixed with a fixed cyclinder for 4 h; after that, the rats were released and the residual drug at the application site was wiped off with clear water. Monoclonal antibody EGFR inhibitors were injected via the tail vein twice a week, and the compound of the present application and blank ointment were applied once a day until obvious rashes appeared in the control group. […] Table 2 lists the animal experiment combinations of various monoclonal antibody EGFR inhibitors and the compound ointment of the present application, as well as the corresponding experiment results (wherein, the value in the control rate column=the number of rats whose rash is milder in the administration group than that in the control group/the total number of rats in the administration group×100%).
# [6] = BPI-7711 60 mg/kg once a day, ointment 5.0 wt% (A14: printed '^ 5%%') once a day, 12 days
# [7] = Panitumumab 6 mg/kg twice a week via tail vein, ointment 0.1 wt%, 8 days of drug application
half-life at 2 µM [3] [min],% Retained ([3]; 0 min) [%],% Retained ([3]; 10 min) [%],% Retained ([3]; 30 min) [%],% Retained ([3]; 60 min) [%],% Retained ([3]; 120 min) [%],half-life at 2 µM [4] [min],% Retained ([4]; 0 min) [%],% Retained ([4]; 10 min) [%],% Retained ([4]; 30 min) [%],% Retained ([4]; 60 min) [%],% Retained ([4]; 120 min) [%],SMILES,other results
,,,,,,,,,,,,CN(CCOC(=O)C1CCCCC1)C(=O)n1ccc2c(-c3cnn([C@@H](CC#N)C4CCCC4)c3)ncnc21 [Compound A39],"Control Rate [1, 6]: 90%; Control Rate ([1]; EAI045 80 mg/kg once a day, ointment 1.0 wt% once a day, 11 days): 20%; Control Rate ([1]; EAI045 80 mg/kg once a day, ointment 5.0 wt% once a day, 11 days): 65%; Control Rate ([1]; Osimertinib 60 mg/kg twice a day, ointment 0.1 wt% once a day, 10 days): 10%; Control Rate ([1]; Osimertinib 60 mg/kg twice a day, ointment 3.0 wt% once a day, 10 days): 30%; Control Rate ([1]; Zorifertinib 60 mg/kg once a day, ointment 5.0 wt% once a day, 14 days): 40%; Control Rate ([2]; Cetuximab 100 mg/kg twice a week via tail vein, ointment 0.1 wt%, 10 days of drug application): 20%; Control Rate ([2]; Cetuximab 100 mg/kg twice a week via tail vein, ointment 1.0 wt%, 10 days of drug application): 40%; Control Rate ([2]; Cetuximab 100 mg/kg twice a week via tail vein, ointment 5.0 wt%, 10 days of drug application): 80%; Control Rate ([2]; Cetuximab 100 mg/kg twice a week via tail vein, ointment 10.0 wt%, 10 days of drug application): 100%; Control Rate [2, 7]: 20%; Control Rate ([2]; Panitumumab 6 mg/kg twice a week via tail vein, ointment 1.0 wt%, 8 days of drug application): 30%; Control Rate ([2]; Panitumumab 6 mg/kg twice a week via tail vein, ointment 5.0 wt%, 8 days of drug application): 60%; Control Rate ([2]; Panitumumab 6 mg/kg twice a week via tail vein, ointment 10.0 wt%, 8 days of drug application): 70%"
66.8,100.0,100.9,76.0,52.2,30.7,25,100.0,83.4,50.7,20.4,3.8,C[C@@H]1CCN(C(=O)CC#N)C[C@@H]1N(C)c1ncnc2c1ccn2C(=O)N(C)CCOC(=O)C1CCN(C)CC1 [Compound A17],
71.5,100.0,88.3,75.9,57.6,30.8,4.8,100.0,20.6,0.9,0.0,0.0,C[C@@H]1CCN(C(=O)CC#N)C[C@@H]1N(C)c1ncnc2c1ccn2C(=O)N(C)CCOC(=O)c1ccncc1 [Compound A15],
6.3,100.0,25.5,1.8,0.1,0.1,3.1,100.0,4.5,0.1,0.1,0.0,CCCCC(=O)OCCN(C)C(=O)n1ccc2c(N(C)[C@H]3CN(C(=O)CC#N)CC[C@H]3C)ncnc21 [Compound A22],"Control Rate ([5]; Cetuximab 100 mg/kg twice a week via tail vein, ointment 0.3 wt% once a day, 10 days): 20%; Control Rate ([5]; Cetuximab 100 mg/kg twice a week via tail vein, ointment 5.0 wt% once a day, 10 days): 40%; Control Rate ([5]; Panitumumab 10 mg/kg twice a week via tail vein, ointment 1.0 wt% once a day, 14 days): 30%; Control Rate ([5]; Panitumumab 10 mg/kg twice a week via tail vein, ointment 10.0 wt% once a day, 14 days): 65%"
24.3,100.0,73.0,46.2,18.5,3.3,2.6,100.0,5.1,0.0,0.0,0.0,CC(C)C(=O)OCCN(C)C(=O)n1ccc2c(N(C)[C@H]3CN(C(=O)CC#N)CC[C@H]3C)ncnc21 [Compound A19],
> 289,100.0,85.3,91.0,91.0,77.6,32.5,100.0,77.1,48.2,28.1,7.4,CC(=O)OCCN(C)C(=O)n1ccc2c(N(C)[C@H]3CN(C(=O)CC#N)CC[C@H]3C)ncnc21 [Compound A13],
,,,,,,,,,,,,C[C@@H]1CCN(C(=O)CC#N)C[C@@H]1N(C)c1ncnc2c1ccn2C(=O)N(C)CCOC(=O)c1ccccc1 [Compound A14],"Control Rate [1, 6]: 70%; Control Rate ([1]; Dacomitinib 10 mg/kg once a day, ointment 1.0 wt% once a day, 12 days): 50%; Control Rate ([1]; Dacomitinib 10 mg/kg once a day, ointment 5.0 wt% once a day, 12 days): 65%; Control Rate ([1]; Osimertinib 60 mg/kg twice a day, ointment 0.3 wt% once a day, 10 days): 30%; Control Rate ([1]; Osimertinib 60 mg/kg twice a day, ointment 10.0 wt% once a day, 10 days): 80%; Control Rate ([1]; Zorifertinib 60 mg/kg once a day, ointment concentration printed '^ 3%%' (wt %) once a day, 14 days): 50%; Control Rate ([2]; Cetuximab 102 mg/kg twice a week via tail vein, ointment 1.0 wt%, 10 days of drug application): 20%; Control Rate ([2]; Cetuximab 102 mg/kg twice a week via tail vein, ointment 5.0 wt%, 10 days of drug application): 60%; Control Rate [2, 7]: 40%; Control Rate ([2]; Panitumumab 6 mg/kg twice a week via tail vein, ointment 3.0 wt%, 8 days of drug application): 70%"
41.1,100.0,75.1,51.3,39.2,12.0,20.8,100.0,60.2,40.1,18.5,1.6,C[C@@H]1CCN(C(=O)CC#N)C[C@@H]1N(C)c1ncnc2c1ccn2C(=O)N(C)CCOC(=O)C(C)(C)C [Compound A23],

# Reference: patent publication US20250188088A1, “COMPOUND AND USE THEREOF” (ONQUALITY PHARMACEUTICALS CHINA LTD., priority 2022, published 2025)
